Assay results published in article PMC6023986, “Interactions Between Emodin and Efflux Transporters on Rat Enterocyte by a Validated Ussing Chamber Technique” (Frontiers in Pharmacology, 2018).
Like-named read-outs stand apart in the source and are kept apart here. Values belong to the compound of their own block, whether it stands above or below them.

Columns and labels:
MRP3 = biological target: T1, MRP3 (Rattus norvegicus, UniProt O88563); assay: Ussing chamber bidirectional transport, model validation for MRP3 (teniposide substrate, benzbromarone inhibitor); assay type: in vitro ADME; conditions: jejunum and ileum, benzbromarone 470 μM, teniposide as substrate
T1 construct: intestinal segments including duodenum, jejunum, ileum, and colon from anesthetized rats were immediately removed by surgery; from tissue; host or cells: stripped rat intestine (jejunum and ileum in validation; jejunum for the emodin studies)
Excerpt: (§1) The four intestinal segments including duodenum, jejunum, ileum, and colon from anesthetized rats were immediately removed by surgery and washed with KRB solution. Each section of the intestinal segments was then placed in cold (on ice), bubbled (O2:CO2 95:5) KRB buffer. The four intestinal segments were then cut into 2 cm pieces, respectively, and serosas were removed by blunt dissection. Peyer’s patches were excluded from the experiment by visually identified. The stripped tissues were mounted in chambers with exposed surface area of 0.49 cm^2. Temperature of the chambers was maintained at 37 ± 0.5°C. Each of the half-cells in the chambers was filled with 5 mL fresh KRB buffer (pH 6.5). Tissue viability was continuously controlled by potential difference (PD). Tissue with electrical values less than 2 mV was refused ([Moazed and Hiebert, 2007]; [Heinen et al., 2013]).
(§2) Digoxin, pravastatin, and teniposide were employed as the test substrates of P-gp, MRP2, and MRP3. […] The experiments were started after 30 min equilibration time, by changing the KRB buffer on both sides; 5 mL KRB solution with different test compounds was filled in the mucosal or serosal compartment; meanwhile, equal volume fresh buffer was added to the other compartment. […] The bidirectional transport studies with specific inhibitors were assessed to validate this model whether or not suitable for P-gp, MRP2, and MRP3 studies. Samples were stored at –80°C until analysis ([Deusser et al., 2013]).
(§3) Frozen samples were adequately vortexed after thawing at the room temperature; 10 μL suitable IS solution was added to 200 μL samples; 200 μL methanol was added after a thorough vortex mixing for 30 s. The mixtures were then vortexed for 30 s and centrifuged at 15,000 rpm for 30 min. Finally, 5 μL of supernatant was injected into the LC-MS/MS system.
(§4) The quantifications of the compounds were performed by the TSQ Quantum Ultra Triple Quadrupole LC-MS/MS system from Thermo Fisher Scientific. Chromatography was carried out using an Agilent Poroshell 120 SB-C18 (2.7 μm, 2.1 mm × 100 mm) column with a Phenomenex AFO-8497 C18 pre-column, operating at 30°C. Adaptive gradient elution methods were applied for the analytes. The flow rate of the mobile phase was kept at 0.2 mL min^-1. Flow was directed to the ion spray interface. All measurements were carried out in negative ESI mode. Ion spray voltage was -2500 V. Vaporizer and capillary temperatures were set at 250 and 350°C, respectively. Auto sampler temperature was set at 10°C. Sheath gas and aux gas were set at 30 and 15 Arb, respectively. […] Peak integrations and calibrations were carried out using LC Quan 2.5.2 software from Thermo Fisher Scientific.
(§5) The Q (accumulative quantity), Papp (apparent permeability), Er (efflux ratio), Pr (Papp ratio), and Err (Er ratio) across the excited rat intestinal segments in the Ussing chamber were calculated using the following equations ([Li et al., 2012]; [Huang et al., 2016]): […]
(§6) where Cn (nM) is the concentration of the drug at the time point (n), Q (nM) is the accumulated absorption amount, A is the exposed surface area of the intestine (0.49 cm^2), dQ/dt (nM⋅s^-1) is the amount of the drug transported, and C0 (nM) is the initial concentration of the test drug. Experiments were performed in batches, so control groups were set as one for each batch.

P-gp [1] = assay: Influence of emodin on P-gp function: digoxin bidirectional transport in the presence of emodin (Ussing chamber); assay type: in vitro ADME; conditions: rat jejunum; for Papp at 25 μM: rat
Excerpt: as §1
In this study, the effects of the three efflux transporters on emodin intestinal absorption were investigated. Meanwhile, the influence of emodin on intestinal P-gp, MRP2, and MRP3 functions were also discussed. Solutions with three concentrations (low, middle, and high) of emodin were filled in the mucosal or serosal compartment to measure the bidirectional transport characteristic. […] In the emodin impact experiments, digoxin, pravastatin, and teniposide were employed as P-gp, MRP2, and MRP3 substrates. Changes of the bidirectional transport characteristic were measured before and after adding emodin to the mucosal side.
as §3, §4, §5, §6

P-gp [2] = assay: in vitro; conditions: rat
Experimental: The quantifications of the compounds were performed by the TSQ Quantum Ultra Triple Quadrupole LC-MS/MS system from Thermo Fisher Scientific. […] Adaptive gradient elution methods were applied for the analytes. The flow rate of the mobile phase was kept at 0.2 mL min^-1. Flow was directed to the ion spray interface. All measurements were carried out in negative ESI mode. Ion spray voltage was -2500 V. Vaporizer and capillary temperatures were set at 250 and 350°C, respectively. Auto sampler temperature was set at 10°C. Sheath gas and aux gas were set at 30 and 15 Arb, respectively. […] Peak integrations and calibrations were carried out using LC Quan 2.5.2 software from Thermo Fisher Scientific.

MRP2 = MRP2 (Rattus norvegicus, UniProt Q63120); assay: Ussing chamber bidirectional transport, model validation for MRP2 (pravastatin substrate, MK571 inhibitor); assay type: in vitro ADME; design: intestinal segments including duodenum, jejunum, ileum, and colon from anesthetized rats were immediately removed by surgery; from tissue; host or cells: stripped rat intestine (jejunum and ileum in validation; jejunum for the emodin studies); conditions: jejunum and ileum, MK571 186 μM, pravastatin as substrate
Excerpt: as §1, with “(PD).” for “(PD). Tissue with electrical values less than 2 mV was refused ([Moazed and Hiebert, 2007]; [Heinen et al., 2013]).”
as §2, with “studies.” for “studies. Samples were stored at –80°C until analysis ([Deusser et al., 2013]).”
as §3
as §4, with “Chromatography was carried out using an Agilent Poroshell 120 SB-C18 (2.7 μm, 2.1 mm × 100 mm) column with a Phenomenex AFO-8497 C18 pre-column, operating at 30°C.” left out
as §6

MRP2, sequence (Q63120 whole entry, the tested form may be a part): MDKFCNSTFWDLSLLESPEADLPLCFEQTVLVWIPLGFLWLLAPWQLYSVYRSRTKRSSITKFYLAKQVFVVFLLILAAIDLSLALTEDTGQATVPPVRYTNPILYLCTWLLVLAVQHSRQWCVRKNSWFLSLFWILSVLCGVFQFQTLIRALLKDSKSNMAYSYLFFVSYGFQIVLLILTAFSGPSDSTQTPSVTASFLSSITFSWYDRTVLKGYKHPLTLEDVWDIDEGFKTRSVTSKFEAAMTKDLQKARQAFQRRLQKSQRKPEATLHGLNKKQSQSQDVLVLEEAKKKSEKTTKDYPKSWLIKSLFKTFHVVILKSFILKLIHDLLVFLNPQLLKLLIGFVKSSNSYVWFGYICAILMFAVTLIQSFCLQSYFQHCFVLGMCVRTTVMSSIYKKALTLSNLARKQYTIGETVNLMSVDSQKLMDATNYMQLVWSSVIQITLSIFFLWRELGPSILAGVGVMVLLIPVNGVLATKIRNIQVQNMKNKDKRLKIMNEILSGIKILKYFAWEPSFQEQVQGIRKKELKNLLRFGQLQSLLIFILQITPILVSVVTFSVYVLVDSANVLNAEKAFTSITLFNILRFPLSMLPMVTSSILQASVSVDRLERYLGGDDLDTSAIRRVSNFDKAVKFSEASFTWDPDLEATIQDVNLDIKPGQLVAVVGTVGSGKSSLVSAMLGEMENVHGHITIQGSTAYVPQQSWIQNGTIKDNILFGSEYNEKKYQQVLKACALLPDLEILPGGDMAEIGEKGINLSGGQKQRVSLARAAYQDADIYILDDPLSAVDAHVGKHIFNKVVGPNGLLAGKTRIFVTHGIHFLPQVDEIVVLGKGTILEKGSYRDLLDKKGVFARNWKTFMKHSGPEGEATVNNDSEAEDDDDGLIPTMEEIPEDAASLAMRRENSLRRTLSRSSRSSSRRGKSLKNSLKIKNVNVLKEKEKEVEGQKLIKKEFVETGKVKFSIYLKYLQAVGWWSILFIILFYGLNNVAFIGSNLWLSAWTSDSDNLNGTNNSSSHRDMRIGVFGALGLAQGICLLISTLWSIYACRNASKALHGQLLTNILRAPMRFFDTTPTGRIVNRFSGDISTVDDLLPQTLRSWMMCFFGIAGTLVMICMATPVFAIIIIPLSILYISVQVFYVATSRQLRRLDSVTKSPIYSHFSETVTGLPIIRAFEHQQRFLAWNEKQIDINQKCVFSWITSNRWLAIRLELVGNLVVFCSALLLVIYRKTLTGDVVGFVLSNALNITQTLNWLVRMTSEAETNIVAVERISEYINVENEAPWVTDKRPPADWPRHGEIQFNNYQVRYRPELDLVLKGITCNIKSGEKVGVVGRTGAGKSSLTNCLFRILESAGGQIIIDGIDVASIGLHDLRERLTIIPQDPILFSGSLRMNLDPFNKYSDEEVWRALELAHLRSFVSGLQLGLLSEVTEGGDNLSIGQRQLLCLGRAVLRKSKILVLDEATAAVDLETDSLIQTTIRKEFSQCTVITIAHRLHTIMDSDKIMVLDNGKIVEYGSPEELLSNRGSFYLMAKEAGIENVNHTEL
T1 sequence (O88563 whole entry): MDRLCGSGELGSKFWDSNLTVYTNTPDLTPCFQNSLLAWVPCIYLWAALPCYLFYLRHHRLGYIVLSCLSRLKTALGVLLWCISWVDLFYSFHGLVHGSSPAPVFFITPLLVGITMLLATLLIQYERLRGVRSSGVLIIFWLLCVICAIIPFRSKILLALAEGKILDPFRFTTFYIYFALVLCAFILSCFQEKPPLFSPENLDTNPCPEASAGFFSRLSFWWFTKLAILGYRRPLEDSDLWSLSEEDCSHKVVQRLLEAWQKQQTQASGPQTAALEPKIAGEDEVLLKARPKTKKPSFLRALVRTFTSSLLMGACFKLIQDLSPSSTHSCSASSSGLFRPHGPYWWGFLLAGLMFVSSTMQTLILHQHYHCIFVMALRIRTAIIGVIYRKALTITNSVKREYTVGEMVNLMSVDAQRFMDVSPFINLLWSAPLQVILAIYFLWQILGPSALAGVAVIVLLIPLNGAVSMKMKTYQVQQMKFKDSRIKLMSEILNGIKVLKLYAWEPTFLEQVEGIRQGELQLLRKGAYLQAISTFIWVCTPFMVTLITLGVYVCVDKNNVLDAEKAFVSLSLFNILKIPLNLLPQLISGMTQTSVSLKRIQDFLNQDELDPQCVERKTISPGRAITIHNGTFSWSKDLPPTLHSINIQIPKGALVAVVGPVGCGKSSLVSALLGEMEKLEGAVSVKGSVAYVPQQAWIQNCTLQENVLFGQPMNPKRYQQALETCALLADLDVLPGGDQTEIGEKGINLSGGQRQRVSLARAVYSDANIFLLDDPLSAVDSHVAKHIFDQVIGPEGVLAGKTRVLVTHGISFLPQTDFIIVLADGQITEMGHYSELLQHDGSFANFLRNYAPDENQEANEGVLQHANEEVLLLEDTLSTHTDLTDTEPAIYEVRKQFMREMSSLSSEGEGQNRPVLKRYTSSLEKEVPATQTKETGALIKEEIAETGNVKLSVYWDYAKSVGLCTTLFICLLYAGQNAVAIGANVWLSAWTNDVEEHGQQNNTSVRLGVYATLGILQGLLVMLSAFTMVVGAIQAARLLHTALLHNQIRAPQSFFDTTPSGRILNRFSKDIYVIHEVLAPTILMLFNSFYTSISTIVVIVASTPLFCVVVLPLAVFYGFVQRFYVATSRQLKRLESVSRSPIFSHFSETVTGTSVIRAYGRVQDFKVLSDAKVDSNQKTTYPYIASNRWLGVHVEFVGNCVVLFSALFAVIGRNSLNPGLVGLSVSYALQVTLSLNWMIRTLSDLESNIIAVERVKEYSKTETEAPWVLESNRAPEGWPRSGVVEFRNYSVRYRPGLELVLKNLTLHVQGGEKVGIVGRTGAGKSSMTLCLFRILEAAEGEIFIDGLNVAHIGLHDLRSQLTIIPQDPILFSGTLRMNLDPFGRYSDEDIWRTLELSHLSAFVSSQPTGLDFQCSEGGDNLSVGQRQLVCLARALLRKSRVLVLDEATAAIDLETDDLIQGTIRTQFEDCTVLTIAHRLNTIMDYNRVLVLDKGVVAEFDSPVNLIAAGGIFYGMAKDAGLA

Inhibition effect on MRP3 (MRP3): significant inhibition effect
Structure (SMILES): CCc1oc2ccccc2c1C(=O)c1cc(Br)c(O)c(Br)c1 [Benzbromarone]

Change of Er values of digoxin after adding emodin (P-gp [1]; digoxin 25 μM, emodin 185, 370, 740 μM): significant higher
Papp at 25 μM (P-gp [1]; pH 6.5, digoxin 25 μM, without emodin, read-out: Papp M-S, control): 91.6 ± 41 ×10⁻⁶ cm/s
Papp at 25 μM (P-gp [1]; pH 6.5, digoxin 25 μM, without emodin, read-out: Papp S-M, control): 152 ± 43.9 ×10⁻⁶ cm/s
Papp at 25 μM (P-gp [1]; pH 6.5, with emodin 185 μM on mucosal side, digoxin 25 μM, emodin 185 μM on mucosal side, read-out: Papp M-S in the presence of emodin): 55.8 ± 29.8 ×10⁻⁶ cm/s
Papp at 25 μM (P-gp [1]; pH 6.5, with emodin 185 μM on mucosal side, digoxin 25 μM, emodin 185 μM on mucosal side, read-out: Papp S-M in the presence of emodin): 257 ± 47.6 ×10⁻⁶ cm/s
Papp at 25 μM (P-gp [1]; pH 6.5, with emodin 370 μM on mucosal side, digoxin 25 μM, emodin 370 μM on mucosal side, read-out: Papp M-S in the presence of emodin): 49 ± 12.8 ×10⁻⁶ cm/s
Papp at 25 μM (P-gp [1]; pH 6.5, with emodin 370 μM on mucosal side, digoxin 25 μM, emodin 370 μM on mucosal side, read-out: Papp S-M in the presence of emodin): 461 ± 191 ×10⁻⁶ cm/s
Papp at 25 μM (P-gp [1]; pH 6.5, with emodin 740 μM on mucosal side, digoxin 25 μM, emodin 740 μM on mucosal side, read-out: Papp M-S in the presence of emodin): 20.4 ± 7.6 ×10⁻⁶ cm/s
Papp at 25 μM (P-gp [1]; pH 6.5, with emodin 740 μM on mucosal side, digoxin 25 μM, emodin 740 μM on mucosal side, read-out: Papp S-M in the presence of emodin): 142 ± 29.7 ×10⁻⁶ cm/s
Papp (P-gp [2]; pH 6.5, Papp M-S, control, rat colon, without inhibitor): 63.1 ± 33.1 ×10⁻⁶ cm/s
Papp (P-gp [2]; pH 6.5, Papp M-S, control, rat duodenum, without inhibitor): 72.5 ± 32.8 ×10⁻⁶ cm/s
Papp (P-gp [2]; pH 6.5, Papp M-S, control, rat ileum, without inhibitor): 43.1 ± 15 ×10⁻⁶ cm/s
Papp (P-gp [2]; pH 6.5, Papp M-S, control, rat jejunum, without inhibitor): 57.8 ± 11.2 ×10⁻⁶ cm/s
Papp (P-gp [2]; pH 6.5, Papp S-M, control, rat colon, without inhibitor): 137 ± 66.3 ×10⁻⁶ cm/s
Papp (P-gp [2]; pH 6.5, Papp S-M, control, rat duodenum, without inhibitor): 186 ± 144 ×10⁻⁶ cm/s
Papp (P-gp [2]; pH 6.5, Papp S-M, control, rat ileum, without inhibitor): 228 ± 136 ×10⁻⁶ cm/s
Papp (P-gp [2]; pH 6.5, Papp S-M, control, rat jejunum, without inhibitor): 270 ± 125 ×10⁻⁶ cm/s
Papp (P-gp [2]; pH 6.5, with verapamil 220 μM, mucosal side, Papp M-S, with inhibitor, rat duodenum, with verapamil 220 μM on mucosal side): 45.3 ± 23.2 ×10⁻⁶ cm/s
Papp (P-gp [2]; pH 6.5, with verapamil 220 μM, mucosal side, Papp M-S, with inhibitor, rat ileum, with verapamil 220 μM on mucosal side): 191 ± 90.5 ×10⁻⁶ cm/s
Papp (P-gp [2]; pH 6.5, with verapamil 220 μM, mucosal side, Papp M-S, with inhibitor, rat jejunum, with verapamil 220 μM on mucosal side): 119 ± 58.5 ×10⁻⁶ cm/s
Papp (P-gp [2]; pH 6.5, with verapamil 220 μM, mucosal side, Papp S-M, with inhibitor, rat duodenum, with verapamil 220 μM on mucosal side): 79.7 ± 32.2 ×10⁻⁶ cm/s
Papp (P-gp [2]; pH 6.5, with verapamil 220 μM, mucosal side, Papp S-M, with inhibitor, rat ileum, with verapamil 220 μM on mucosal side): 157 ± 108 ×10⁻⁶ cm/s
Papp (P-gp [2]; pH 6.5, with verapamil 220 μM, mucosal side, Papp S-M, with inhibitor, rat jejunum, with verapamil 220 μM on mucosal side): 96.4 ± 86.4 ×10⁻⁶ cm/s
Papp (P-gp [2]; pH 6.5, with verapamil 440 μM, mucosal side, Papp M-S, with inhibitor, rat colon, with verapamil 440 μM on mucosal side): 189 ± 34.3 ×10⁻⁶ cm/s
Papp (P-gp [2]; pH 6.5, with verapamil 440 μM, mucosal side, Papp S-M, with inhibitor, rat colon, with verapamil 440 μM on mucosal side): 191 ± 40.1 ×10⁻⁶ cm/s
Structure (SMILES): C[C@H]1O[C@@H](O[C@H]2[C@@H](O)C[C@H](O[C@H]3[C@@H](O)C[C@H](O[C@H]4CC[C@@]5(C)[C@H](CC[C@@H]6[C@@H]5C[C@@H](O)[C@]5(C)[C@@H](C7=CC(=O)OC7)CC[C@]65O)C4)O[C@@H]3C)O[C@@H]2C)C[C@H](O)[C@@H]1O [Digoxin]

Inhibition effect on MRP2 (MRP2): significant inhibition effect
Structure (SMILES): CN(C)C(=O)CCSC(SCCC(=O)O)c1cccc(/C=C/c2ccc3ccc(Cl)cc3n2)c1 (stereo not drawn) [MK571]
